Measured values from patent US11753410B2, “Hormone receptor modulators for treating metabolic mutagenic and fibrotic conditions and disorders” (priority 2017, dated 2023).

Target: T1, ligand binding domain of human FXR (Homo sapiens, UniProt Q96RI1)
T1 construct: purchased Thermofisher (LanthaScreen) PV4833
T1 sequence (Q96RI1 262-486 limits assumed): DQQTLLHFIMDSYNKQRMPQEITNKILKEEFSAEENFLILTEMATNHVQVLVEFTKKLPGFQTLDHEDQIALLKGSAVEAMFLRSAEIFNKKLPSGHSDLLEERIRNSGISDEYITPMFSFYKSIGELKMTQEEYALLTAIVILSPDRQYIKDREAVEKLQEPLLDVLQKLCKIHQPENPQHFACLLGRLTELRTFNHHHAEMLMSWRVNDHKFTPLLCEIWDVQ
Assay: biochemical
Conditions: for Emax: extent of activation relative to GW4064, read-out: Ligand Binding % Efficacy; for EC50: −log EC50, concentration required to produce 50% activation, FRET 520 nm/495 nm, 1 hour at room temperature, read-out: Ligand Binding pEC50 (converted)
Procedure: The affinity of FXR ligands for the ligand binding domain of FXR was determined using a commercially available human FXR ligand binding assay (LanthaScreen, Thermofisher Cat #PV4833). […] Binding of FXR ligands to the FXR ligand binding domain promotes binding of the fluorescein-labelled SRC2-2 peptide. This causes a FRET signal between the terbium-labelled anti-GST antibody and the fluorescein-labelled SRC peptide which are both bound to the FXR ligand binding domain.
Test compounds are dissolved in DMSO and a 3-fold serial dilution series is generated, then further diluted into assay buffer. The compounds are mixed with 5 nM GST-tagged FXR ligand binding domain, 5 nM Tb-labelled anti-GST antibody and 500 nM fluorescein-labelled SRC2-2 peptide in a pH7.4 buffer. The reaction is incubated at room temperature for 1 hour, then the FRET signal is measured as the ratio of the 520 nm/495 nm emission following excitation at 340 nm. The change in FRET signal is plotted against the test article concentration and fit to a 3-parameter logistical equation.

O=C(O)c1c(F)cc(N2C[C@@H]3C[C@H]2C[C@H]3OCc2c(C3CC3)cnn2-c2c(Cl)cccc2Cl)cc1F [Compound I-3, 4-[(1S,4S,5R)-5-{[4-cyclopropyl-1-(2,6-dichlorophenyl)-1H-pyrazol-5-yl]methoxy}-2-azabicyclo[2.2.1]heptan-2-yl]-2,6-difluorobenzoic acid]
Emax: 156%
EC50: 39.8 nM

O=C(O)c1ccc(N2C[C@@H]3C[C@H]2C[C@H]3OCc2c(C3CC3)cnn2-c2c(Cl)cccc2Cl)nc1 [Compound I-4, 6-[(1S,4S,5R)-5-{[4-cyclopropyl-1-(2,6-dichlorophenyl)-1H-pyrazol-5-yl]methoxy}-2-azabicyclo[2.2.1]heptan-2-yl]pyridine-3-carboxylic acid]
Emax: 132%
EC50: 100 nM

O=C(O)c1ccc(N2C[C@@H]3C[C@H]2C[C@H]3OCc2c(C3CC3)cnn2-c2c(Cl)cccc2Cl)cn1 [Compound I-5, 5-[(1S,4S,5R)-5-{[4-cyclopropyl-1-(2,6-dichlorophenyl)-1H-pyrazol-5-yl]methoxy}-2-azabicyclo[2.2.1]heptan-2-yl]pyridine-2-carboxylic acid]
Emax: 119%
EC50: 251 nM

O=C(O)c1ncc(N2C[C@@H]3C[C@H]2C[C@H]3OCc2c(C3CC3)cnn2-c2c(Cl)cccc2Cl)cn1 [Compound I-6, 5-[(1S,4S,5R)-5-{[4-cyclopropyl-1-(2,6-dichlorophenyl)-1H-pyrazol-5-yl]methoxy}-2-azabicyclo[2.2.1]heptan-2-yl]pyrimidine-2-carboxylic acid]
Emax: 101%

Cc1cccc(C)c1-n1ncc(C2CC2)c1CO[C@@H]1C[C@@H]2C[C@H]1CN2c1ccc(C(=O)O)c(F)c1 [Compound I-7, 4-[(1S,4S,5R)-5-{[4-cyclopropyl-1-(2,6-dimethylphenyl)-1H-pyrazol-5-yl]methoxy}-2-azabicyclo[2.2.1]heptan-2-yl]-2-fluorobenzoic acid]
Emax: 134%
EC50: 25.1 nM

Cc1cccc(Cl)c1-n1ncc(C2CC2)c1CO[C@@H]1C[C@@H]2C[C@H]1CN2c1ccc(C(=O)O)c(F)c1 [Compound I-8, 4-[(1S,4S,5R)-5-{[1-(2-chloro-6-methylphenyl)-4-cyclopropyl-1H-pyrazol-5-yl]methoxy}-2-azabicyclo[2.2.1]heptan-2-yl]-2-fluorobenzoic acid]
Emax: 164%
EC50: 7.94 nM

O=C(O)c1ccc(N2C[C@@H]3C[C@H]2C[C@H]3OCc2c(C3CC3)cnn2-c2c(F)cccc2Cl)cc1F [Compound I-9, 4-[(1S,4S,5R)-5-{[1-(2-chloro-6-fluorophenyl)-4-cyclopropyl-1H-pyrazol-5-yl]methoxy}-2-azabicyclo[2.2.1]heptan-2-yl]-2-fluorobenzoic acid]
Emax: 164%
EC50: 39.8 nM

O=C(O)c1ccc(N2C(=O)[C@@H]3C[C@H]2C[C@H]3OCc2c(C3CC3)cnn2-c2c(Cl)cccc2Cl)cc1 [Compound I-11, 4-[(1S,4R,5R)-5-{[4-cyclopropyl-1-(2,6-dichlorophenyl)-1H-pyrazol-5-yl]methoxy}-3-oxo-2-azabicyclo[2.2.1]heptan-2-yl]benzoic acid]
Emax: 152%
EC50: 39.8 nM

O=C(O)c1ccc(N2C(=O)[C@@H]3C[C@H]2C[C@H]3OCc2c(C3CC3)cnn2-c2c(Cl)cccc2Cl)cc1F [Compound I-12, 4-[(1S,4R,5R)-5-{[4-cyclopropyl-1-(2,6-dichlorophenyl)-1H-pyrazol-5-yl]methoxy}-3-oxo-2-azabicyclo[2.2.1]heptan-2-yl]-2-fluorobenzoic acid]
Emax: 176%
EC50: 39.8 nM

O=C(O)c1ccc(N2C(=O)[C@@H]3C[C@H]2C[C@H]3OCc2c(C3CC3)cnn2-c2c(Cl)cccc2Cl)c(F)c1 [Compound I-13, 4-[(1S,4R,5R)-5-{[4-cyclopropyl-1-(2,6-dichlorophenyl)-1H-pyrazol-5-yl]methoxy}-3-oxo-2-azabicyclo[2.2.1]heptan-2-yl]-3-fluorobenzoic acid]
Emax: 142%
EC50: 158 nM

C[C@@H]1[C@@H]2C[C@@H](C[C@H]2OCc2c(C3CC3)cnn2-c2c(Cl)cccc2Cl)N1c1ccc(C(=O)O)cc1 [Compound I-14, 4-[(1S,3R,4S,5R)-5-{[4-cyclopropyl-1-(2,6-dichlorophenyl)-1H-pyrazol-5-yl]methoxy}-3-methyl-2-azabicyclo[2.2.1]heptan-2-yl]benzoic acid]
Emax: 48%
EC50: 398 nM

C[C@@H]1[C@@H]2C[C@@H](C[C@H]2OCc2c(C3CC3)cnn2-c2c(Cl)cccc2Cl)N1c1ccc(C(=O)O)c(F)c1 [Compound I-15, 4-[(1S,3R,4S,5R)-5-{[4-cyclopropyl-1-(2,6-dichlorophenyl)-1H-pyrazol-5-yl]methoxy}-3-methyl-2-azabicyclo[2.2.1]heptan-2-yl]-2-fluorobenzoic acid]
Emax: 44%
EC50: 1000 nM

CC[C@@H]1[C@@H]2C[C@@H](C[C@H]2OCc2c(C3CC3)cnn2-c2c(Cl)cccc2Cl)N1c1ccc(C(=O)O)cc1 [Compound I-16, 4-[(1S,3R,4S,5R)-5-{[4-cyclopropyl-1-(2,6-dichlorophenyl)-1H-pyrazol-5-yl]methoxy}-3-ethyl-2-azabicyclo[2.2.1]heptan-2-yl]benzoic acid]
Emax: 52%
EC50: 1000 nM

CC[C@H]1[C@H]2C[C@H](C[C@@H]2OCc2c(C3CC3)cnn2-c2c(Cl)cccc2Cl)N1c1ccc(C(=O)O)cc1 [Compound I-17, 4-[(1R,3S,4R,5S)-5-{[4-cyclopropyl-1-(2,6-dichlorophenyl)-1H-pyrazol-5-yl]methoxy}-3-ethyl-2-azabicyclo[2.2.1]heptan-2-yl]benzoic acid]
Emax: 15%

CC[C@@H]1[C@@H]2C[C@@H](C[C@H]2OCc2c(C3CC3)cnn2-c2c(Cl)cccc2Cl)N1c1ccc(C(=O)O)c(F)c1 [Compound I-18, 4-[(1S,3R,4S,5R)-5-{[4-cyclopropyl-1-(2,6-dichlorophenyl)-1H-pyrazol-5-yl]methoxy}-3-ethyl-2-azabicyclo[2.2.1]heptan-2-yl]-2-fluorobenzoic acid]
Emax: 47%

CC[C@H]1[C@H]2C[C@H](C[C@@H]2OCc2c(C3CC3)cnn2-c2c(Cl)cccc2Cl)N1c1ccc(C(=O)O)c(F)c1 [Compound I-19, 4-[(1R,3S,4R,5S)-5-{[4-cyclopropyl-1-(2,6-dichlorophenyl)-1H-pyrazol-5-yl]methoxy}-3-ethyl-2-azabicyclo[2.2.1]heptan-2-yl]-2-fluorobenzoic acid]
Emax: 30%

CC1(C)CC(S(=O)(=O)NC(=O)c2ccc(N3C[C@@H]4C[C@H]3C[C@H]4OCc3c(C4CC4)cnn3-c3c(Cl)cccc3Cl)cc2)CCO1 (stereo partly drawn) [Compound I-21, 4-[(1S,4S,5R)-5-{[4-cyclopropyl-1-(2,6-dichlorophenyl)-1H-pyrazol-5-yl]methoxy}-2-azabicyclo[2.2.1]heptan-2-yl]-N-[(2,2-dimethyloxan-4-yl)sulfonyl]benzamide]
Emax: 174%
EC50: 1.58 nM

O=C(NS(=O)(=O)C1CC1)c1ccc(N2C[C@@H]3C[C@H]2C[C@H]3OCc2c(C3CC3)cnn2-c2c(Cl)cccc2Cl)cc1 [Compound I-22, 4-((1S,4S,5R)-5-((4-cyclopropyl-1-(2,6-dichlorophenyl)-1H-pyrazol-5-yl)methoxy)-2-azabicyclo[2.2.1]heptan-2-yl)-N-(cyclopropylsulfonyl)benzamide]
Emax: 166%
EC50: 3.98 nM

O=C(NS(=O)(=O)C1CCOCC1)c1ccc(N2C[C@@H]3C[C@H]2C[C@H]3OCc2c(C3CC3)cnn2-c2c(Cl)cccc2Cl)cn1 [Compound I-25, 5-((1S,4S,5R)-5-((4-cyclopropyl-1-(2,6-dichlorophenyl)-1H-pyrazol-5-yl)methoxy)-2-azabicyclo[2.2.1]heptan-2-yl)-N-((tetrahydro-2H-pyran-4-yl)sulfonyl)picolinamide]
Emax: 130%
EC50: 25.1 nM

O=C(NS(=O)(=O)C1CCOCC1)c1ccc(N2C(=O)[C@@H]3C[C@H]2C[C@H]3OCc2c(C3CC3)cnn2-c2c(Cl)cccc2Cl)cc1 [Compound I-26, 4-((1S,4R,5R)-5-((4-cyclopropyl-1-(2,6-dichlorophenyl)-1H-pyrazol-5-yl)methoxy)-3-oxo-2-azabicyclo[2.2.1]heptan-2-yl)-N-((tetrahydro-2H-pyran-4-yl)sulfonyl)benzamide]
Emax: 169%
EC50: 10 nM

O=C(NS(=O)(=O)C1CCOCC1)c1ccc(N2C(=O)[C@@H]3C[C@H]2C[C@H]3OCc2c(C3CC3)cnn2-c2c(Cl)cccc2Cl)cc1F [Compound I-27, 4-((1S,4R,5R)-5-((4-cyclopropyl-1-(2,6-dichlorophenyl)-1H-pyrazol-5-yl)methoxy)-3-oxo-2-azabicyclo[2.2.1]heptan-2-yl)-2-fluoro-N-((tetrahydro-2H-pyran-4-yl)sulfonyl)benzamide]
Emax: 185%
EC50: 5.01 nM

C[C@@H]1[C@@H]2C[C@@H](C[C@H]2OCc2c(C3CC3)cnn2-c2c(Cl)cccc2Cl)N1c1ccc(C(=O)NS(=O)(=O)C2CCOCC2)c(F)c1 [Compound I-28, 4-((1S,3R,4S,5R)-5-((4-cyclopropyl-1-(2,6-dichlorophenyl)-1H-pyrazol-5-yl)methoxy)-3-methyl-2-azabicyclo[2.2.1]heptan-2-yl)-2-fluoro-N-((tetrahydro-2H-pyran-4-yl)sulfonyl)benzamide]
Emax: 56%
EC50: 398 nM
